According to patent US20050070594A1, “Use of angiotensin II receptor antagonists” (Boehringer Ingelheim International GmbH, priority 2003, published 2005):

Assays:
[1] = biological target: T1, human PPARgamma-ligand binding domain (LBD) (Homo sapiens, UniProt P37231); experiment: AlphaScreen: recruiting of biotinylated LXXLL peptide of cofactor CBP to GST-PPARgamma-LBD; format: biochemical
T1 construct: codes for the amino acids 205-505 of the human PPARgamma2 transcription factor; made in house; host or cells: E. coli BL21(DE3), vector pGEX-4T-1
T1 sequence (P37231 205-505): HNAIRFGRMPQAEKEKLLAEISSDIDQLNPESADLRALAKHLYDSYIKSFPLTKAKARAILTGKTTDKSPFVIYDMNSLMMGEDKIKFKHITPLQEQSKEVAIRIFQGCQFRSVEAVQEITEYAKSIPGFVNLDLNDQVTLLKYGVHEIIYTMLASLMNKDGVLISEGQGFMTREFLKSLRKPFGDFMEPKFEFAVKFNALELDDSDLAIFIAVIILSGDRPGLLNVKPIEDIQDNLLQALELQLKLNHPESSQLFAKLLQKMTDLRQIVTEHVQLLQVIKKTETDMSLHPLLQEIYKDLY
Protocol: Protein containing the human PPARgamma-ligand binding domain (LBD) is prepared as a GST fusion protein in E.coli and purified by affinity chromatography. […] The fusion protein is expressed in the E.coli strain BL21(DE3) recommended for pGEX vectors after induction with 0.2 mM IPTG for 4 hours at 25° C. The bacteria are pelleted after the induction and frozen in batches in PBS, pH 7.4. After opening up in a French Press, the dissolved GST-PPARgamma-LBD-fusion protein is purified using a GSTrap column (Pharmacia). Elution is carried out by the addition of 20 mM reduced glutathione.
The GST-PPARgamma-LBD-protein fractions are desalinated using a HiTrap desalting column (Pharmacia) and the protein concentration is determined using a standard assay.
The assay buffer consists of 25 mM Hepes pH7.4, 100 mM NaCl,1 mM DTT, 0.1% Tween-20, 0.1% BSA. […] The final DMSO concentration in the assay is 1% (v/v). A 1% DMSO solution is used as the background control (NSB). The measurement is done using a Packard fusion measuring device.

[2] = biological target: T2, human PPARgamma-ligand binding domain (LBD) (Homo sapiens, UniProt P37231); experiment: SPA assay: displacement of 3H-labelled rosiglitazone from GST-PPARgamma-LBD; details: NSB 217, Bmax 911
T2 sequence (P37231 205-505): T1 sequence (P37231 205-505)
T2 sequence (P19793 220-461 partner limits assumed): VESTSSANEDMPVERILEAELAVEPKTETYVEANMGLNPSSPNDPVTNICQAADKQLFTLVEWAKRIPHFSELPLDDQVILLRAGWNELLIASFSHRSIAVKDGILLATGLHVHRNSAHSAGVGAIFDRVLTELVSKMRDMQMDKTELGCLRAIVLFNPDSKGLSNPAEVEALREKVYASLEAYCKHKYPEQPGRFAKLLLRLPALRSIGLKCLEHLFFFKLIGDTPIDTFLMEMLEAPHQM
Protocol: Protein containing the human PPARgamma-ligand binding domain (LBD) is prepared as a GST fusion protein in E.coli and purified by affinity chromatography. To do this, a DNA section which codes for the amino acids 205-505 of the human PPARgamma2 transcription factor (cf. Genbank entry U79012) is subcloned via the additionally introduced restriction cutting sites BamH I and Xho I into the expression vector pGEX-4T-1 (Amersham) and the sequence of the section is monitored. […] The bacteria are pelleted after the induction and frozen in batches in PBS, pH 7.4. After opening up in a French Press, the dissolved GST-PPARgamma-LBD-fusion protein is purified using a GSTrap column (Pharmacia). Elution is carried out by the addition of 20 mM reduced glutathione. The GST-PPARgamma-LBD-protein fractions are desalinated using a HiTrap desalting column (Pharmacia) and the protein concentration is determined using a standard assay. Protein containing the human RXRalpha ligand binding domain (LBD) is prepared as a His tag fusion protein in E.coli and purified by affinity chromatography. To do this a DNA section which codes for the amino acids 220-461 of the human RXRalpha transcription factor (cf. Genbank entry NM_002957, nt 729-1457) is subcloned via the additionally introduced restriction cutting sites BamH I and Not I into the expression vector pET28c (Novagen) and the sequence of the section is monitored. […] The bacteria are pelleted after the expression and frozen in batches in PBS, pH 7.4. After opening up in a French Press, the dissolved His-RXRalpha-LBD-fusion protein is purified using a HiTrap chelating column (Pharmacia). Elution is carried out using a 500 mM imidazole step. The His-RXRalpha-LBD protein fractions are desalinated using a HiTrap desalting column (Pharmacia) and the protein concentration is determined using a standard assay. A description of the SPA assay format can be found in Mukheriee R et al., J Steroid Biochem Mol Biol (2002) 81:217-225.

CCCc1nc2c(C)cc(-c3nc4ccccc4n3C)cc2n1Cc1ccc(-c2ccccc2C(=O)O)cc1 [telmisartan]
AlphaScreen signal (MW) ([1]; 1.00E−05 M test substance): 847
AlphaScreen signal (MW) ([1]; 1.00E−06 M test substance): 677
AlphaScreen signal (MW) ([1]; 1.00E−07 M test substance): 606
AlphaScreen signal (MW) ([1]; 3.00E−06 M test substance): 720
AlphaScreen signal (MW) ([1]; 3.00E−07 M test substance): 644
AlphaScreen signal (MW) ([1]; 3.00E−08 M test substance): 642
AlphaScreen signal (MW) ([1]; 5.00E−05 M test substance): 1111
direct activation of the PPARgamma-LBD / recruiting of the LXXLL peptide ([1]; concentrations of up to 50 μM): does not result in any direct activation
SPA signal, bound 3H-rosiglitazone (MW) ([2]; 1.00E−04 M test substance): 545
SPA signal, bound 3H-rosiglitazone (MW) ([2]; 1.00E−05 M test substance): 703
SPA signal, bound 3H-rosiglitazone (MW) ([2]; 1.00E−06 M test substance): 818
SPA signal, bound 3H-rosiglitazone (MW) ([2]; 1.00E−07 M test substance): 837
SPA signal, bound 3H-rosiglitazone (MW) ([2]; 3.00E−05 M test substance): 691
SPA signal, bound 3H-rosiglitazone (MW) ([2]; 3.00E−06 M test substance): 818
SPA signal, bound 3H-rosiglitazone (MW) ([2]; 3.00E−07 M test substance): 802
